Experiment [1] addresses T1, 5HT1a receptor (Homo sapiens, UniProt P08908).
T1 construct: Buspirone (30 mg) or matching placebo was administered orally at 0900 h (Time 0); from tissue; host or cells: living human subjects (central receptors)
T1 sequence (P08908 1-422): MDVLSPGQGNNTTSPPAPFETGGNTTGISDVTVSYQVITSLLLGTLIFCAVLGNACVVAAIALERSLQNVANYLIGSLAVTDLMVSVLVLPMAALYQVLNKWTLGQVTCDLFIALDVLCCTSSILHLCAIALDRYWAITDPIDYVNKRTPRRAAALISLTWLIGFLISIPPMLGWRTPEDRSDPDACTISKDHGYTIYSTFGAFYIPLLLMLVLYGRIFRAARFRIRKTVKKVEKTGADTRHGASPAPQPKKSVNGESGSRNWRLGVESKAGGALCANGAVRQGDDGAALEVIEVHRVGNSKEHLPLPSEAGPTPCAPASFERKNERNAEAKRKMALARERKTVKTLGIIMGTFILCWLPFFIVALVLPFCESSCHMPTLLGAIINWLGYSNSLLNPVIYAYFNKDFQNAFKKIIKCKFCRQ
As to the kind of experiment: Buspirone challenge, prolactin release. The following applies: buspirone 30 mg orally; for Prolactin AUC (mean±SD): blood 0-180 min. Type of experiment: in vivo. How it is done:
A total of 12 subjects (9 female/3 male) and 12 healthy comparison subjects (9 female/3 male) gave fully informed consent to take part in the study. […] All patients fulfilled criteria for both fibromyalgia (ACR criteria) and chronic fatigue syndrome (CDC criteria). […] Buspirone (30 mg) or matching placebo was administered orally at 0900 h (Time 0). Blood was taken at 0, 30, 60, 90, 120 and 180 min.

Experiment [2] deals with patients with fibromyalgia. Description: Open label treatment study in fibromyalgia / chronic fatigue syndrome. The experiment is classed as in vivo, human. The settings on record: 2.5 mg three times daily. How it is done:
Five patients with fibromyalgia (ACR criteria) who also met criteria for chronic fatigue syndrome (CDC criteria) gave informed consent to take part in this open label treatment study. All were treated with pindolol 2.5 mg three times daily.

Each structure is given as a SMILES string. Where only a bound is given, the exact number is not on record here.

Consider `O=C1CC2(CCCC2)CC(=O)N1CCCCN1CCN(c2ncccn2)CC1` [Buspirone], for which the “Prolactin levels after challenge” value in experiment [1] (all subjects (patients and healthy)) is reported as “rose in all subjects”. Moreover, the “Prolactin AUC (mean±SD)” value in experiment [1] (healthy subjects) amounted to 27±35; in experiment [1] (patients with fibromyalgia and chronic fatigue syndrome), 49±28.

Take `CC(C)NCC(O)COc1cccc2[nH]ccc12` (racemic) [pindolol]: the “Time to significant improvement in symptoms” value in experiment [2] (from commencing treatment) was at most 10 days. Further, the “Effect on symptoms, energy levels and general wellbeing” value in experiment [2] (open label) is “reduction in all symptoms and an increase in energy levels and general wellbeing”. Besides, the “Patients showing a significant improvement in symptoms” value in experiment [2] (open label, five patients with fibromyalgia and chronic fatigue syndrome) is given as “Four of 5”.

Source of the values: patent US6855729B2, “Treatment of fibromyalgia and related fatigue syndromes using antagonists or partial agonists of 5HT1a receptors” (priority 2001, dated 2005).
